In brackets after ≈: the same amount, converted by molar mass.
Key:
Botrytis cinerea = experiment: Fungicidal activity against drug sensitive Botryotinia fuckeliana assessed as inhibition of germ tube elongation; type: functional, organism-based
[1] = Half life in soil assessed as compound degradation through hydrolysis and microbial degradation
[2] = Half life in drug sensitive Botryotinia fuckeliana cultures; settings: botrytis cinerea, in vivo
[3] = Botrytis cinerea, read-out: EC50

SMILES	EC50 (Botrytis cinerea; [3]) [µg/mL]	EC50 (Botrytis cinerea)	half-life [1] [h]	half-life [2] [h]
CC(=O)NC(C#N)C(=O)O (configuration not stated)	0.025 (≈ 0.176 µM)			
CCNC(=O)N1C(=O)C(C#N)=NC1(C)C		Not Active		
CCN1C(=O)NC(=O)C1=O		Not Active		
CCN1C(=O)NC(=O)/C1=N/OC		Not Active		
CCNC(=O)NC(=O)/C(C#N)=N/OC [CYMOXANIL]	0.25 (≈ 1.26 µM)		< 48	≤ 2
